Among the data in patent US9834550B2, “Pyridopyrimidinone compounds for modulating the catalytic activity of histone lysine demethylases (KDMs)” (Dong-A Socio Holdings Co., Ltd., priority 2014, dated 2017) are inhibition values, retold here.

This assay has as its target T1, Recombinant human JARID1B/KDM5B (Homo sapiens, UniProt Q9UGL1).
T1 construct: purchased Active Motif 31432; host or cells: Sf9 insect cells
The assay can be described thus: LANCE Ultra TR-FRET demethylase assay with FLAG-tagged JARID1B. As to conditions: 100 nM compound; 500 nM biotinylated H3K4me3 peptide substrate. The assay is classed as biochemical. The text has this: FLAG-tagged JARID1B (also known as KDM5B) protein was screened against more than 170 compounds. For this compound screening, LANCE Ultra time-resolved fluorescence resonance energy transfer (TR-FRET) assay was employed using an europoium (Eu)-labeled antibody that can specifically recognize mono- or dimethylated peptides (H3K4me2/1) and ULight-streptavidin (ULight-SA), a small molecule fluorescent dye. When irradiated at 340 nm, the energy from the Eu donor is transferred to the ULight acceptor dye which, in turn, emits light primarily at 665 nm. The ratio between the intensity of primary emission at 665 nm and that of secondary emission at 590 nm was used to quantify the level of lysine methylation. As JARID1B removes more methyl moieties from tri-methylated substrate peptides (H3K4me3), the ratio increases until the enzyme reaction is terminated. In case, therefore, the compounds disrupt the enzymatic activity completely, the ratio becomes equal to a background value.
Recombinant human JARID1B/KDM5B (accession number NP_006609) of molecular weight 179.9 KDa was expressed in Sf9 insect cells and contains an N-terminal FLAG tag. The enzyme was obtained from Active Motif (Catalog No. 31432). The tri-methylated histone substrate peptide of purity greater than 95% was a synthetic peptide in which the first 21 amino acids correspond to the human histone H3 sequence with three extra amino acids and a biotin motif (GGK-biotin) linked to the C-terminus [sequence: ART-K (Me3)-QTARKSTGGKAPRKQLA-GGK-biotin-OH], (AnaSpec, Fremont, Calif. Catalog. No. ANA-1413). The reference inhibitory compound tranylcypromine (or trans-2-phenylcyclopropylamine hydrochloride, also known as, 2-PCPA) was purchased from Sigma (St. Louis, Mo. Cat. no. P8511). ULight-labeled streptavidin (ULight-SA, Catalog no. TRF0102), Eu-W1024-labeled anti-methyl-Histone H3 Lysine 4 (H3K4me1-2) Antibody (Catalog no. TRF0402), and LANCE detection buffer 10× (Catalog no. CR97-100) were obtained from PerkinElmer (Montreal, Quebec, Canada). The TR-FRET experiments were carried out in white, low-volume 384-wellplates purchased from PerkinElmer (ProxiPlate-384 Plus, Catalog no. 6008280).
The TR-FRET signal was measured in the presence both of the bio-H3K4me3 peptide and FLAG-JARID1B by detecting any H3K4me2/1 peptide produced in the assay system. Assays using only the bio-H3K4me2 peptide were served as a positive control. Robust enzymatic progressions were observed by using JARID1B at concentrations ranging from 10 to 30 nM. In a typical TR-FRET experiment, JARID1B was pre-incubated with or without 20 uM, 1 uM, or 0.1 uM of test-compounds (containing 1% DMSO final) for […]. The enzymatic reactions were initiated by the addition of 500 nM biotinylated H3K4me3 peptide substrate plus 500 uM of 2-OG, 25 uM Fe(II) and 2 mM ascorbate. The reaction buffer also contained 50 mM Hepes (pH7.5), 0.01% (v/v) Tween 20, and 50 mM NaCl. The reaction mixture was incubated for […] at room temperature before reading on an EnVision plate reader (PerkinElmer, Waltham, Mass.).
In general terms: Time-resolved FRET reads energy transfer from a long-lived donor to a nearby acceptor.

T1 sequence (Q9UGL1 whole entry): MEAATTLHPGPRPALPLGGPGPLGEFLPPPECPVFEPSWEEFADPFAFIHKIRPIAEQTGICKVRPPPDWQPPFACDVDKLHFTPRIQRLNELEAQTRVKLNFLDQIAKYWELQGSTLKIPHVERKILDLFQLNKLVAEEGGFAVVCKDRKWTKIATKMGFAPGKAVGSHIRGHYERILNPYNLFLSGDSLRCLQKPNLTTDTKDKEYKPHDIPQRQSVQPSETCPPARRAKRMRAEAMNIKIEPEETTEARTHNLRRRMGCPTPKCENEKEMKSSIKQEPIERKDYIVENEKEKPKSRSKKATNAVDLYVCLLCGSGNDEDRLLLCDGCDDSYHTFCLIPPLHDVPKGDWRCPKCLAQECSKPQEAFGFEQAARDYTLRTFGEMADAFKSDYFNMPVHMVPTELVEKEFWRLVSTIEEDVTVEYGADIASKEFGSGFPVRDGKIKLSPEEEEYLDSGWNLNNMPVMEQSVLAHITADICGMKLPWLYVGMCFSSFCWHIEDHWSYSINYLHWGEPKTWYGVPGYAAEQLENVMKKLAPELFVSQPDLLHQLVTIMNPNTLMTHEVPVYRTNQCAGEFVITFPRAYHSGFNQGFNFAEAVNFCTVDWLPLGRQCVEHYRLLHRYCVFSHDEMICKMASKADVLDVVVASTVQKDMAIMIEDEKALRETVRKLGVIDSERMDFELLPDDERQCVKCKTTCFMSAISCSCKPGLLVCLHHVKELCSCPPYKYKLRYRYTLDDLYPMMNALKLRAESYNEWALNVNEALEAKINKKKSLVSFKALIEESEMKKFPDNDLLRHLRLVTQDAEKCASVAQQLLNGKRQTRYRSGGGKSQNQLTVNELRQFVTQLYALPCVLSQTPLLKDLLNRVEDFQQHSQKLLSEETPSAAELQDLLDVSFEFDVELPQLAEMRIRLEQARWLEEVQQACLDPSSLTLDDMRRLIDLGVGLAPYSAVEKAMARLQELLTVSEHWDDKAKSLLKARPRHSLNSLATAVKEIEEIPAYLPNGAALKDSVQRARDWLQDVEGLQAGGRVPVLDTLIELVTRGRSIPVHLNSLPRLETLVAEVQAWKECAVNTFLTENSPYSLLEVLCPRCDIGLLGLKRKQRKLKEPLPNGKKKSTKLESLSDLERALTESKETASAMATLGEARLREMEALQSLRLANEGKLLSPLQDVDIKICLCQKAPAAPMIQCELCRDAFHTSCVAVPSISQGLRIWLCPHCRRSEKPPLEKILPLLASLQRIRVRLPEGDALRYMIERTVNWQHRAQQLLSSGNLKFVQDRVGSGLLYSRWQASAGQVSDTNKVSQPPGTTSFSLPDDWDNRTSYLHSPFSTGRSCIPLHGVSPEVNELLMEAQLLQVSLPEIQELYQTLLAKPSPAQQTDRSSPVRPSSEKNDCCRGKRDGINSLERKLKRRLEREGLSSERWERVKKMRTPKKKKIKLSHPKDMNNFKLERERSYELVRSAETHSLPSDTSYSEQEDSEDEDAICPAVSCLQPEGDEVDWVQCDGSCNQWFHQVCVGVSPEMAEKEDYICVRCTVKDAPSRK

On to `O=c1[nH]c(COc2cccc(Cl)c2Cl)nc2c(CNCC3CCNCC3)nccc12` [Example 113, 2-((2,3-dichlorophenoxy)methyl)-8-(((piperidin-4-ylmethyl)amino)methyl)pyrido[3,4-d]pyrimidin-4(3H)-one], for which the inhibition (usually how much of the control response was suppressed) at 0.1 µM fell in the range of 20 to 50%.

For the compound `O=c1[nH]c(COc2ccc(Cl)cc2Cl)nc2c(CNCC3CCNCC3)nccc12` [Example 114, 2-((2,4-dichlorophenoxy)methyl)-8-(((piperidin-4-ylmethyl)amino)methyl)pyrido[3,4-d]pyrimidin-4(3H)-one], the inhibition at 0.1 µM lay within 20 to 50%.

As for `O=c1[nH]c(COc2cc(Cl)ccc2Cl)nc2c(CNCC3CCNCC3)nccc12` [Example 115, 2-((2,5-dichlorophenoxy)methyl)-8-(((piperidin-4-ylmethyl)amino)methyl)pyrido[3,4-d]pyrimidin-4(3H)-one], the inhibition at 0.1 µM was in the range of 20 to 50%.

With `O=c1[nH]c(COc2ccccc2F)nc2c(CNCC3CCNCC3)nccc12` [Example 116, 2-((2-fluorophenoxy)methyl)-8-(((piperidin-4-ylmethyl)amino)methyl)pyrido[3,4-d]pyrimidin-4(3H)-one], the inhibition at 0.1 µM fell in the range of 20 to 50%.

As to `O=c1[nH]c(COc2ccccc2Br)nc2c(CNCC3CCNCC3)nccc12` [Example 117, 2-((2-bromophenoxy)methyl)-8-(((piperidin-4-ylmethyl)amino)methyl)pyrido[3,4-d]pyrimidin-4(3H)-one], the inhibition at 0.1 µM lay in the range of 20 to 50%.

Take `Cc1ccccc1OCc1nc2c(CNCC3CCNCC3)nccc2c(=O)[nH]1` [Example 118, 8-(((piperidin-4-ylmethyl)amino)methyl)-2-((o-tolyloxy)methyl)pyrido[3,4-d]pyrimidin-4(3H)-one]: the inhibition at 0.1 µM is 20 to 50%.

Consider `Cc1cccc(OCc2nc3c(CNCC4CCNCC4)nccc3c(=O)[nH]2)c1` [Example 119, 8-(((piperidin-4-ylmethyl)amino)methyl)-2-((m-tolyloxy)methyl)pyrido[3,4-d]pyrimidin-4(3H)-one], for which the inhibition at 0.1 µM fell in the range of 20 to 50%.

For the compound `Cc1ccc(OCc2nc3c(CNCC4CCNCC4)nccc3c(=O)[nH]2)cc1` [Example 120, 8-(((piperidin-4-ylmethyl)amino)methyl)-2-((p-tolyloxy)methyl)pyrido[3,4-d]pyrimidin-4(3H)-one], the inhibition at 0.1 µM lay in the range of 20 to 50%.

On to `O=c1[nH]c(COc2ccc(Cc3ccccc3)cc2)nc2c(CNCC3CCNCC3)nccc12` [Example 121, 2-((4-benzylphenoxy)methyl)-8-(((piperidin-4-ylmethyl)amino)methyl)pyrido[3,4-d]pyrimidin-4(3H)-one], for which the inhibition at 0.1 µM is over 50%.

As for `O=c1[nH]c(COc2ccccc2Cl)nc2c(CNCC3CCNCC3)nccc12` [Example 122, 2-((2-chlorophenoxy)methyl)-8-(((piperidin-4-ylmethyl)amino)methyl)pyrido[3,4-d]pyrimidin-4(3H)-one], the inhibition at 0.1 µM is 20 to 50%.

As to `O=c1[nH]c(COc2ccccc2)nc2c(CNCC3CCNCC3)nccc12` [Example 123, 2-(phenoxymethyl)-8-(((piperidin-4-ylmethyl)amino)methyl)pyrido[3,4-d]pyrimidin-4(3H)-one], the inhibition at 0.1 µM lay in the range of 20 to 50%.

For the compound `O=c1[nH]c(COc2ccc(F)cc2F)nc2c(CNCC3CCNCC3)nccc12` [Example 124, 2-((2,4-difluorophenoxy)methyl)-8-(((piperidin-4-ylmethyl)amino)methyl)pyrido[3,4-d]pyrimidin-4(3H)-one], the inhibition at 0.1 µM is 20 to 50%.

With `O=c1[nH]c(COc2cc(F)cc(F)c2)nc2c(CNCC3CCNCC3)nccc12` [Example 125, 2-((3,5-difluorophenoxy)methyl)-8-(((piperidin-4-ylmethyl)amino)methyl)pyrido[3,4-d]pyrimidin-4(3H)-one], the inhibition at 0.1 µM lay within 20 to 50%.

In the case of `O=c1[nH]c(COc2ccc(F)c(Cl)c2)nc2c(CNCC3CCNCC3)nccc12` [Example 126, 2-((3-chloro-4-fluorophenoxy)methyl)-8-(((piperidin-4-ylmethyl)amino)methyl)pyrido[3,4-d]pyrimidin-4(3H)-one], the inhibition at 0.1 µM was over 50%.
